Data: the supplement of paper PMC12420376

Legend:
[1] = system: KURAMOCHI; assay: drug sensitivity score (DSS2) on cancer cell count; higher = more sensitive; extreme values may be limits of the assay; settings: 72 h
Outline: (§1)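 Ovarian cancer cells were cultured either alone or directly mixed 1:1 with lung or skin fibroblasts and plated onto 384-well plates acoustically pre-spotted with 528 approved and investigational compounds at 5 concentrations for 72 h of treatment. After fixation, cells were immunostained for CK8/18 with Hoechst and imaged at 10× across 4 fields to count cancer cells. Responses were fitted with 4-parameter logistic curves, and from these fits a drug sensitivity score was derived in Breeze, with screen quality assessed by Z'.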

[2] = system: OVCAR8; assay: as above; settings: 72 h
Outline: as §1

[3] = co-cultured fibroblast: BJHTERT
[4] = co-cultured fibroblast: none (monoculture)

| Compound | drug sensitivity score [1, 3] | drug sensitivity score ([1]; co-cultured fibroblast: WI38) | drug sensitivity score [1, 4] | drug sensitivity score [2, 3] | drug sensitivity score ([2]; co-cultured fibroblast: WI38) | drug sensitivity score [2, 4] |
| --- | --- | --- | --- | --- | --- | --- |
| CC[C@H](C)C(=O)O[C@H]1C[C@@H](C)C=C2C=C[C@H](C)[C@H](CC[C@@H]3C[C@@H](O)CC(=O)O3)[C@H]21 [Lovastatin] | 0.3 DSS | 3.4 DSS | 5.4 DSS | 1.7 DSS | 8.4 DSS | 2.1 DSS |
| CNC(=O)c1cccc2cc(Oc3ccnc4cc(OCC5(N)CC5)c(OC)cc34)ccc12 [Lucitanib] | 4.3 DSS | 4.3 DSS | 2.4 DSS | 3.3 DSS | 6 DSS | 3.4 DSS |
| CCNC(=O)c1noc(-c2cc(C(C)C)c(O)cc2O)c1-c1ccc(CN2CCOCC2)cc1 [Luminespib] | 19.7 DSS | 20.9 DSS | 22.9 DSS | 28.3 DSS | 29.8 DSS | 29.9 DSS |
| O=C(O)CC[C@H]1CC[C@@](c2cc(F)ccc2F)(S(=O)(=O)c2ccc(Cl)cc2)CC1 [MK-0752] | 0 DSS | 0 DSS | 0 DSS | 3.7 DSS | 0 DSS | 0 DSS |
| NC1(c2ccc(-c3nc4ccn5c(=O)[nH]nc5c4cc3-c3ccccc3)cc2)CCC1 [MK-2206] | 5.8 DSS | 1.4 DSS | 16.1 DSS | 0.2 DSS | 0 DSS | 0.3 DSS |
| O=C(c1cccc(Cl)c1F)N1CCN(Cc2cccc(Nc3nccs3)n2)CC1 [MK-8745] | 11.8 DSS | 14.3 DSS | 13.4 DSS | 12.5 DSS | 14.3 DSS | 13.9 DSS |
| Cn1cc(-c2cnn3c(N)c(Br)c([C@@H]4CCCNC4)nc23)cn1 [MK-8776] | 1.2 DSS | 0 DSS | 1.6 DSS | 7.8 DSS | 0.2 DSS | 0 DSS |
| Cc1cnc(-c2ccccc2C(C)C)nc1NCc1ccc(-n2ccnn2)cc1 [ML323] | 0 DSS | 1.3 DSS | 1.9 DSS | 2.9 DSS | 0 DSS | 3.8 DSS |
| O=C(CCNC(=O)c1ccc(OC(F)(F)F)cc1)N[C@@H]1CCCc2ccccc21 [ML390] | 3.4 DSS | 2.9 DSS | 4 DSS | 8.5 DSS | 0 DSS | 8.1 DSS |
| O=C(Nc1cccc(NC(=O)c2cccc(O)c2O)c1)c1cccc(O)c1O [MST-312] | 12 DSS | 9.8 DSS | 15.1 DSS | 10.9 DSS | 15.4 DSS | 18.1 DSS |
| CNC(=O)[C@@H](NC(=O)[C@H](CC(C)C)[C@H](O)C(=O)NO)C(C)(C)C [Marimastat] | 0 DSS | 0 DSS | 0 DSS | 0.2 DSS | 1.4 DSS | 0.7 DSS |
| Cc1ccc(NC(=O)c2ccc(CN3CCN(C)CC3)cc2)cc1Nc1nc(-c2cccnc2)cs1 [Masitinib] | 2 DSS | 1.6 DSS | 0 DSS | 3.9 DSS | 0.2 DSS | 0.2 DSS |
| CC(=O)O[C@]1(C(C)=O)CC[C@H]2[C@@H]3C=C(C)C4=CC(=O)CC[C@]4(C)[C@H]3CC[C@@]21C [Megestrol acetate] | 0 DSS | 6 DSS | 0 DSS | 0 DSS | 0 DSS | 0 DSS |
| CCN(CC)CCCC(C)Nc1c2ccc(Cl)cc2nc2ccc(OC)cc12 (configuration not stated) [Mepacrine] | 13.8 DSS | 13.8 DSS | 19.1 DSS | 19.8 DSS | 14.2 DSS | 14.4 DSS |
| S=c1[nH]cnc2nc[nH]c12 [Mercaptopurine] | 0.1 DSS | 0.3 DSS | 0 DSS | 0 DSS | 0 DSS | 5.4 DSS |
| Cc1ccc(C(=O)Nc2ccc(Oc3cc4cnn(C)c4cc3-c3cn[nH]c3)c(F)c2)c(=O)n1-c1ccc(F)cc1 [Merestinib] | 0 DSS | 1.5 DSS | 1.5 DSS | 0 DSS | 0 DSS | 0.1 DSS |
| CN(C)C(=N)NC(=N)N [Metformin] | 0 DSS | 0 DSS | 0 DSS | 0 DSS | 0 DSS | 0 DSS |
| CN(Cc1cnc2nc(N)nc(N)c2n1)c1ccc(C(=O)N[C@@H](CCC(=O)O)C(=O)O)cc1 [Methotrexate] | 5.9 DSS | 0 DSS | 19.7 DSS | 12.3 DSS | 12.4 DSS | 27.7 DSS |
| C[C@H]1C[C@@H]2[C@H]([C@@H](O)C[C@@]3(C)[C@H]2CC[C@]3(O)C(=O)CO)[C@@]2(C)C=CC(=O)C=C12 [Methylprednisolone] | 0 DSS | 0 DSS | 9.8 DSS | 0 DSS | 0 DSS | 8.1 DSS |
| CO[C@@H]1[C@H](N(C)C(=O)c2ccccc2)C[C@H]2O[C@]1(C)n1c3ccccc3c3c4c(c5c6ccccc6n2c5c31)C(=O)NC4 [Midostaurin] | 16.2 DSS | 14.8 DSS | 11.6 DSS | 13.3 DSS | 16.5 DSS | 13 DSS |
| CNC(=O)c1nn(C)c2c1C(C)(C)Cc1cnc(Nc3ccc(N4CCN(C)CC4)cc3)nc1-2 [Milciclib] | 11.2 DSS | 9.8 DSS | 10 DSS | 13.9 DSS | 12.3 DSS | 11.4 DSS |
| CCCCCCCCCCCCCCCCOP(=O)([O-])OCC[N+](C)(C)C [Miltefosine] | 4.4 DSS | 7.4 DSS | 5 DSS | 8.4 DSS | 7.3 DSS | 5.7 DSS |
| CO[C@@]12[C@H](COC(N)=O)C3=C(C(=O)C(C)=C(N)C3=O)N1C[C@@H]1N[C@@H]12 [Mitomycin C] | 0 DSS | 0 DSS | 12.4 DSS | 4.2 DSS | 0.8 DSS | 3.1 DSS |
| Clc1ccc(C(c2ccccc2Cl)C(Cl)Cl)cc1 (configuration not stated) [Mitotane] | 0 DSS | 0 DSS | 0 DSS | 0 DSS | 0 DSS | 0 DSS |
| O=C1c2c(O)ccc(O)c2C(=O)c2c(NCCNCCO)ccc(NCCNCCO)c21 [Mitoxantrone] | 17.1 DSS | 13.3 DSS | 23.6 DSS | 20.4 DSS | 17 DSS | 18.1 DSS |
| CCS(=O)(=O)Nc1ccc(Oc2ccc(F)cc2F)c(-c2cn(C)c(=O)c3[nH]ccc23)c1 [Mivebresib] | 22.6 DSS | 21.7 DSS | 17.5 DSS | 35.4 DSS | 26.9 DSS | 30.9 DSS |
| Nc1ccccc1NC(=O)c1ccc(CNc2nccc(-c3cccnc3)n2)cc1 [Mocetinostat] | 10.4 DSS | 13.9 DSS | 13.7 DSS | 14 DSS | 19.3 DSS | 21.7 DSS |
